Reference: patent US5665721A, “Heterocyclic substituted cyclopentane compounds” (Abbott Laboratories, priority 1995, dated 1997)

Molecular target: adenosine kinase (Homo sapiens, UniProt P55263)
Sequence (P55263 whole entry, species assumed): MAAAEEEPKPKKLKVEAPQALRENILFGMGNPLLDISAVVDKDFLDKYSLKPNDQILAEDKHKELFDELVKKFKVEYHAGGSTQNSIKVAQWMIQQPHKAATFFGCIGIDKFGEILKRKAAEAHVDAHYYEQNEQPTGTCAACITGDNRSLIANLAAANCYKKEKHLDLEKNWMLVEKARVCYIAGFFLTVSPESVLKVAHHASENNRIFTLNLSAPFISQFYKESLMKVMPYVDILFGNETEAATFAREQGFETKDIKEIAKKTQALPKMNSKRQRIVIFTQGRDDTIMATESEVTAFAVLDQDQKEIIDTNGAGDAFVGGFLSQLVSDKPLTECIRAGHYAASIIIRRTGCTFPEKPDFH
Test: In vitro inhibition of adenosine kinase activity
Type: biochemical
Details: Table 1, in vitro
Excerpt: The adenosine kinase to be inhibited can be located in vitro, in situ or in vivo. Where the adenosine kinase is located in vitro, adenosine kinase is contacted with the inhibitor compound, typically by adding the compound to an aqueous solution containing the enzyme, radiolabeled substrate adenosine, magnesium chloride and ATP. The enzyme can exist in intact cells or in isolated subcellular fractions containing the enzyme. The enzyme is then maintained in the presence of the inhibitor for a period of time and under suitable physiological conditions. Means for determining maintained times are well known in the art and depend inter alia on the concentrations of enzyme and the physiological conditions. Suitable physiological conditions are those necessary to maintain adenosine kinase viability and include temperature, acidity, tonicity and the like. Inhibition of adenosine kinase can be performed, by example, according to standard procedures well known in the art (Yamada et at., Comp. Biochem. Physiol. 1982, 71B: 367-372).
In vitro adenosine kinase activity can be measured using any of the standard procedures well known in the art. By way of example, cells containing adenosine kinase, such as IMR-32 human neuroblastoma cells, are cultured in the presence and absence of an inhibitor. Inhibition is measured as the ability to inhibit phosphorylation of endogenous or externally applied ^14 C-adenosine by these cells. The cells can be intact or broken. The specificity of adenosine kinase inhibitory activity is determined by studying the effects of inhibitors on adenosine A1 and A2a receptor binding, adenosine deaminase activity and adenosine transport.
Numerous inhibitor compounds of the present invention were tested in vitro and found to inhibit adenosine kinase activity. The results of some representative studies are shown below in Tables 1 and 2.
Compound `O[C@@H]1[C@H](O)[C@@H](O)C[C@H]1n1cc(Cl)c2c(Cl)ncnc21` [drawing 13 (R5=Cl, R6=Cl), N7-((1'R,2'S,3'R,4'S)-2',3',4'-trihydroxycyclopentyl)-4,5-dichloro-pyrrolopyrimidine] has an IC50 of 90 nM.
Compound `O[C@@H]1[C@H](O)[C@@H](O)C[C@H]1n1cc(I)c2c(Cl)ncnc21` [drawing 13 (R5=Cl, R6=I), N7-((1'R,2'S,3'R,4'S)-2',3',4'-trihydroxycyclopentyl)-4-chloro-5-iodo-pyrrolopyrimidine] has an IC50 of 10 nM.
Work on `O[C@@H]1[C@H](O)[C@@H](O)C[C@H]1n1cc(-c2ccccc2)c2c(Cl)ncnc21` [drawing 13 (R5=Cl, R6=Ph), N7-((1'R,2'S,3'R,4'S)-2',3',4'-trihydroxycyclopentyl)-4-chloro-5-phenyl-pyrrolopyrimidine] yielded an IC50 of 45 nM.
In the case of `O[C@@H]1[C@H](O)[C@@H](O)C[C@H]1n1cc(C#Cc2ccccc2)c2c(Cl)ncnc21` [drawing 13 (R5=Cl, R6=PhCC), N7-((1'R,2'S,3'R,4'S)-2',3',4'-trihydroxycyclopentyl)-4-chloro-5-phenylacetylenyl-pyrrolopyrimidine], the IC50 is reported as 100 nM.
Compound `Nc1ncnc2c1c(I)cn2[C@@H]1C[C@H](O)[C@@H](O)[C@H]1O` [drawing 13 (R5=NH2, R6=I), N7-((1'R,2'S,3'R,4'S)-2',3',4'-trihydroxycyclopentyl)-4-amino-5-iodo-pyrrolopyrimidine] has an IC50 of 13 nM.
Compound `Nc1ncnc2c1c(-c1ccccc1)cn2[C@@H]1C[C@H](O)[C@@H](O)[C@H]1O` [drawing 13 (R5=NH2, R6=Ph), N7-((1'R,2'S,3'R,4'S)-2',3',4'-trihydroxycyclopentyl)-4-amino-5-phenyl-pyrrolopyrimidine] has an IC50 of 200 nM.
`Nc1ncnc2c1c(C#Cc1ccccc1)cn2[C@@H]1C[C@H](O)[C@@H](O)[C@H]1O` [drawing 13 (R5=NH2, R6=PhCC), N7-((1'R,2'S,3'R,4'S)-2',3',4'-trihydroxycyclopentyl)-4-amino-5-phenylacetylenyl-pyrrolopyrimidine] showed an IC50 of 230 nM.
For `Nc1ncnc2c1c(CCc1ccccc1)cn2[C@@H]1C[C@H](O)[C@@H](O)[C@H]1O` [drawing 13 (R5=NH2, R6=PhCH2CH2), N7-((1'R,2'S,3'R,4'S)-2',3',4'-trihydroxycyclopentyl)-4-amino-5-((2phenyl)ethyl)-pyrrolopyrimidine], the IC50 was 300 nM.
Work on `O[C@@H]1[C@H](O)[C@@H](O)C[C@H]1n1cc(I)c2c(Nc3ccccc3)ncnc21` [drawing 13 (R5=NHPh, R6=I), N7-((1'R,2'S,3'R,4'S)-2',3',4'-trihydroxycyclopentyl)-4-(phenyl)amino-5-iodo-pyrrolopyrimidine] yielded an IC50 of 100 nM.
With `O[C@@H]1[C@H](O)[C@@H](O)C[C@H]1n1cc(-c2ccccc2)c2c(Nc3ccccc3)ncnc21` [drawing 13 (R5=NHPh, R6=Ph), N7-((1'R,2'S,3'R,4'S)-2',3',4'-trihydroxycyclopentyl)-4-(phenyl)amino-5-phenyl-pyrrolopyrimidine] the IC50 was 3 nM.
`O[C@@H]1[C@H](O)[C@@H](O)C[C@H]1n1cc(C#Cc2ccccc2)c2c(C#Cc3ccccc3)ncnc21` [drawing 13 (R5=PhCC, R6=PhCC), N7-((1'R,2'S,3'R,4'S)-2',3',4'-trihydroxycyclopentyl)-4,5-bis-phenylacetylenyl-pyrrolopyrimidine] showed an IC50 of 15 nM.
Compound `CN(C)[C@H]1C[C@@H](n2cc(I)c3c(Cl)ncnc32)[C@H](O)[C@@H]1O` [drawing 14 (R4=(CH3)2N, R5=Cl, R6=I), N7-((1'R,2'S,3'R,4'S)-2',3'-dihydroxy-4'-(dimethyl)amino-cyclopentyl)-4-chloro-5-iodo-pyrrolopyrimidine] has an IC50 of 20 nM.
In the case of `CC(C)(C)OC(=O)N(C(=O)OC(C)(C)C)[C@H]1C[C@@H](n2cc(I)c3c(Cl)ncnc32)[C@H](O)[C@@H]1O` [drawing 14 (R4=Boc2N, R5=Cl, R6=I), N7-((1'R,2'S,3'R,4'S)-2',3'-dihydroxy-4'-(bis-t-butoxycarbonylamino)-cyclopentyl)-4-chloro-5-iodo pyrrolopyrimidine], the IC50 is reported as > 1000 nM.
For `CN[C@H]1C[C@@H](n2cc(C)c3c(Cl)ncnc32)[C@H](O)[C@@H]1O` [drawing 14 (R4=CH3NH, R5=Cl, R6=CH3), N7-((1'R,2'S,3'R,4'S)-2',3'-dihydroxy-4'-(methyl)amino-cyclopentyl)-4-chloro-5-methyl-pyrrolopyrimidine], the IC50 was 300 nM.
In the case of `N[C@H]1C[C@@H](n2cc(I)c3c(Cl)ncnc32)[C@H](O)[C@@H]1O` [drawing 14 (R4=H2N, R5=Cl, R6=I), N7-((1'R,2'S,3'R,4'S)-2',3'-dihydroxy-4'-amino-cyclopentyl)-4-chloro-5-iodo-pyrrolopyrimidine], the IC50 is reported as 0.035 nM.
For `Nc1ncnc2c1c(I)cn2[C@@H]1C[C@H](N)[C@@H](O)[C@H]1O` [drawing 14 (R4=H2N, R5=NH2, R6=I), N7-((1'R,2'S,3'R,4'S)-2',3'-dihydroxy-4'-amino-cyclopentyl)-4-amino-5-iodo-pyrrolopyrimidine], the IC50 was 0.08 nM.
For `CC(C)(C)OC(=O)N[C@H]1C[C@@H](n2cc(I)c3c(N)ncnc32)[C@H](O)[C@@H]1O` [drawing 14 (R4=NHBoc, R5=NH2, R6=I), N7-((1'R,2'S,3'R,4'S)-2',3'-dihydroxy-4'-(t-butoxycarbonylamino)-cyclopentyl)-4-amino-5-iodo-pyrrolopyrimidine], the IC50 was 15 nM.

Same assay, conditions: Table 1, in vitro, single structure
For `N[C@@H]1C=C[C@H](n2cc(I)c3c(Cl)ncnc32)C1`, the IC50 was 2.5 nM.

Same assay, conditions: Table 2, in vitro
In the case of `O=C(N[C@H]1C[C@@H](n2cc(I)c3c(Cl)ncnc32)[C@H](O)[C@@H]1O)c1cccnc1`, the IC50 is reported as 5 nM.
With `CC(=O)O[C@@H]1[C@H](OC(C)=O)[C@@H](OC(C)=O)C[C@H]1n1cc(-c2ccccc2)c2c(Cl)ncnc21` [drawing 16 (R5=Cl, R6=Ph), N7-((1'R,2'S,3'R,4'S)-2',3',4'-triacetoxycyclopentyl)-4-chloro-5-phenyl-pyrrolopyrimidine] the IC50 was > 100000 nM.
For `CC(=O)O[C@@H]1[C@H](OC(C)=O)[C@@H](OC(C)=O)C[C@H]1n1cc(C#Cc2ccccc2)c2c(C#Cc3ccccc3)ncnc21` [drawing 16 (R5=PhCC, R6=PhCC), N7-((1'R,2'S,3'R,4'S)-2',3',4'-triacetoxycyclopentyl)-4,5-bis-phenylacetylenyl-pyrrolopyrimidine], the IC50 was > 10000 nM.
With `CC(=O)N[C@H]1C[C@@H](n2cc(I)c3c(Cl)ncnc32)[C@H](OC(C)=O)[C@@H]1OC(C)=O` [drawing 17 (R5=Cl)] the IC50 was > 10000 nM.
`O=C(N[C@H]1C[C@@H](n2cc(I)c3c(Cl)ncnc32)[C@H](O)[C@@H]1O)C(F)(F)F` [drawing 18 (R5=Cl, R=CF3CO), N7-((1'R,2'S,3'R,4'S)-2',3'-dihydroxy-4'-(trifluoroacetyl)amino-cyclopentyl)-4-chloro-5-iodo-pyrrolopyrimidine] gave an IC50 of 110 nM.
In the case of `CC(=O)N[C@H]1C[C@@H](n2cc(I)c3c(Cl)ncnc32)[C@H](O)[C@@H]1O` [drawing 18 (R5=Cl, R=CH3CO), N7-((1'R,2'S,3'R,4'S)-2',3'-dihydroxy-4'-(acetyl)amino-cyclopentyl)-4-chloro-5-iodo-pyrrolopyrimidine], the IC50 is reported as 350 nM.
Compound `CC(=O)N[C@H]1C[C@@H](n2cc(I)c3c(N)ncnc32)[C@H](O)[C@@H]1O` [drawing 18 (R5=NH2, R=CH3CO), N7-((1'R,2'S,3'R,4'S)-2',3'-dihydroxy-4'-(acetyl)amino-cyclopentyl)-4-amino-5-iodo-pyrrolopyrimidine] has an IC50 of 160 nM.
Compound `CC(C)(C)OC(=O)N[C@H]1C[C@@H](n2cc(I)c3c(N)ncnc32)[C@H](O)[C@@H]1O` [drawing 18 (R5=NH2, R=NHBoc), N7-((1'R,2'S,3'R,4'S)-2',3'-dihydroxy-4'-(t-butoxycarbonylamino)-cyclopentyl)-4-amino-5-iodo-pyrrolopyrimidine] has an IC50 of 150 nM.
With `O=C(N[C@H]1C[C@@H](n2cc(I)c3c(O)ncnc32)[C@H](O)[C@@H]1O)C(F)(F)F` [drawing 18 (R5=OH, R=CF3CO), N7-((1'R,2'S,3'R,4'S)-2',3'-dihydroxy-4'-(trifluoroacetyl)amino-cyclopentyl)-4-hydroxy-5-iodo-pyrrolopyrimidine] the IC50 was 200 nM.
For `CC(=O)N[C@H]1C[C@@H](n2cc(I)c3c(Cl)ncnc32)[C@@H]2OC(=O)O[C@@H]21` [drawing 21 (R=CH3CO, R5=Cl), N7-((1'R,2'S,3'R,4'S)-2',3'--O-(2"-oxo-1",3"-dioxalyl)-4'-(acetyl)amino-cyclopentyl)-4-chloro-5-iodo-pyrrolopyrimidine], the IC50 was 6300 nM.
With `CC(=O)N[C@H]1C[C@@H](n2cc(I)c3c(O)ncnc32)[C@@H]2OC(=O)O[C@@H]21` [drawing 21 (R=CH3CO, R5=OH), N7-((1'R,2'S,3'R,4'S)-2',3'--O-(2"-oxo-1",3"-dioxalyl)-4'-(acetyl)amino-cyclopentyl)-4-hydroxy-5-iodo-pyrrolopyrimidine] the IC50 was 4000 nM.
`N[C@H]1C[C@@H](n2cc(I)c3c(Cl)ncnc32)[C@@H]2OC(=O)O[C@@H]21` [drawing 21 (R=H, R5=Cl), N7-((1'R,2'S,3'R,4'S)-2',3'--O-(2"-oxo-1",3"-dioxalyl)-4'-amino-cyclopentyl)-4-chloro-5-iodo-pyrrolopyrimidine] gave an IC50 of 2.5 nM.

System: adenosine kinase
Test: not given
Details: literature; cited from earlier work
In the case of `NC[C@H]1O[C@@H](n2cnc3c(N)ncnc32)[C@H](O)[C@@H]1O` [5'-amino,5'-deoxyadenosine], the “reported to inhibit adenosine kinase (in words)” value is listed as “most potent”.
